According to patent US20240398808A1, “DIHYDROFOLATE FOR HYPOGLYCEMIC ACTIVITY” (COUNCIL OF SCIENTIFIC AND INDUSTRIAL RESEARCH an india …, priority 2023, published 2024):
Marks after values point to notes of the source that are not given here.

What was measured:
rat liver homogenate = test: In vitro glucose assay using rat liver homogenate; assay type: biochemical; settings: 100 μM glucose, 25 μM or 50 μM folates, 37° C., 1 hour
Experimental: The glucose concentration was determined after incubation at 37° C. for 1 hour.
(A) Folates at a concentration of 25 μM. (B) Folates at 50 μM. Control represents glucose concentration without folate treatment which is considered to be 100%. The results are presented as mean±SD (n=3), and the significance of the values was analyzed by one-way ANOVA followed by Tukey's test (p<0.05). *p<0.05, **p<0.01, […], ***p<0.0001.

diabetic Wistar rats [1] = test: Organ weight after long-term oral administration in diabetic Wistar rats; assay type: in vivo; design: unit not given here; settings: mean±SD (n=6)
Experimental: The results are presented as mean±SD (n=6), and the significance of the values was analyzed by one-way ANOVA followed by Tukey's test (p<0.05). *p<0.05, **p<0.01, ***p<0.001, ****p<0.0001.

diabetic Wistar rats [2] = test: Oral glucose tolerance test (OGTT) in diabetic Wistar rats; assay type: in vivo; settings: for whole blood glucose values from baseline: 0-120 min
Experimental: Fasting blood sugar concentration was estimated.
Oral glucose tolerance test (OGTT). The test was performed by oral administration of glucose (2 g/kg body wt). Graph showing blood glucose concentration before (0 min) and 30, 60, 90, and 120 min after administration. Data are shown as the mean±SEM (n=6).

diabetic Wistar rats [3] = test: Organ histology (islets of the pancreas) in diabetic Wistar rats; assay type: in vivo; settings: long-term oral administration
[4] = 400 μg folate vs equimolar amounts, after 8 weeks of treatment; cited from earlier work

Compound	glucose concentration upon treatment (rat liver homogenate)	Organ weight, Adipose (diabetic Wistar rats [1])	Organ weight, Brain (diabetic Wistar rats [1])	Organ weight, Cecum matter (diabetic Wistar rats [1])	Organ weight, Heart (diabetic Wistar rats [1])	Organ weight, Kidney (diabetic Wistar rats [1])	Organ weight, Liver (diabetic Wistar rats [1])	Organ weight, Lungs (diabetic Wistar rats [1])	Organ weight, Spleen (diabetic Wistar rats [1])	Organ weight, Testes (diabetic Wistar rats [1])	time at which decline in whole blood glucose leveled off (diabetic Wistar rats [2]; OGTT)	whole blood glucose values from baseline (diabetic Wistar rats [2]; OGTT)	histology of islets of the pancreas / beta cells (diabetic Wistar rats [3])	serum folate concentrations compared to the folate group [4] [fold]	glucose tolerance (diabetic Wistar rats [2]; oral glucose 2 g/kg body wt)
CN1c2c(nc(N)[nH]c2=O)NCC1CNc1ccc(C(=O)N[C@@H](CCC(=O)O)C(=O)O)cc1 (some centres unmarked) [5-methyltetrahydrofolate]	decreased	2.77 ± 2.11**	1.46 ± 0.18	4.33 ± 0.95	0.82 ± 0.23	2.12 ± 0.2	8.49 ± 2.52	1.93 ± 0.62	0.92 ± 0.35	2.31 ± 0.79	about 120 minutes	gradual decline	Moderate hypertrophy of islets of the pancreas and moderate hyperplasia of beta cells	–	–
CN1c2c(nc(N)[nH]c2=O)NC[C@H]1CNc1ccc(C(=O)N[C@@H](CCC(=O)O)C(=O)O)cc1 [[6R,S]-5-methyltetrahydrofolate]	–	–	–	–	–	–	–	–	–	–	–	–	–	~3	–
Nc1nc(=O)c2c([nH]1)NCC(CNc1ccc(C(=O)N[C@@H](CCC(=O)O)C(=O)O)cc1)=N2 [dihydrofolate]	decreased	5.43 ± 1.75*	1.64 ± .09	2.72 ± 0.51	0.88 ± 0.07	1.74 ± 0.21	10.68 ± 1.46	2.09 ± 0.18	1.09 ± 0.10	2.88 ± 0.27	–	more gradual decline	Severe hypertrophy of islets of the pancreas with hyperplasia of beta cells	–	greater effect
Nc1nc(=O)c2nc(CNc3ccc(C(=O)N[C@@H](CCC(=O)O)C(=O)O)cc3)cnc2[nH]1 [synthetic folate]	no effect	0.87 ± 0.60****	–	6.46 ± 1.49	0.68 ± 0.07	2.12 ± 0.46	7.35 ± 1.02	1.46 ± 0.38	0.66 ± 0.08	2.57 ± 0.95	–	did not show much declaim	Moderate atrophy of islets of the pancreas with apoptosis of beta cells	–	–
